The results in this text go back to ChEMBL document CHEMBL1201862, “PubChem BioAssay data set” (2004).

Test systems include A549; ACHN; HCT-116; K562; LOX IMVI; NCI-H226; NCI-H23; NCI-H460; OVCAR-5; RPMI-8226; RXF 393; SF-268; SK-MEL-28; SK-MEL-5; SK-OV-3; SNB-75; SW-620; TK-10; HCC 2998; NCI/ADR-RES.
What all share (assay): inhibition of tumour cell growth, NCI panel, 48 h

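Growth conditions: 96-well plates. Treatment: test compound, 48 hours, 5 concentrations. Analysis: linear interpolation between bracketing concentrations; unreached endpoints set to highest concentration. Here, GI50 denotes the concentration required for 50% inhibition of growth.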 Active and inactive are the calls of the source. No stated cut-off is given here; in the data, active = GI50 up to about 1.1 µM and inactive = higher.

`O=C1C2c3[nH]c4ccccc4c3C3CCSCC3C2C(=O)N1c1ccccc1` (stereo not given): the GI50 was > 100 µM (inactive) with A549; > 100 µM (inactive) with ACHN; > 100 µM (inactive) with HCT-116; 72.9 µM (inactive) in the experiment on K562; > 100 µM (inactive) in the experiment with LOX IMVI; > 100 µM (inactive) with NCI-H226. In addition, the GI50 in the experiment on NCI-H23 was > 100 µM (inactive); in the experiment on NCI-H460, > 100 µM (inactive); in the experiment on OVCAR-5, > 100 µM (inactive); in the experiment on RPMI-8226, > 100 µM (inactive); with RXF 393, 25.8 µM (inactive); with SF-268 it was > 100 µM (inactive). Moreover, the GI50 in the experiment with SK-MEL-28 was > 100 µM (inactive); with SK-MEL-5 it was > 100 µM (inactive); with SK-OV-3, > 100 µM (inactive); in the experiment with SNB-75 it was 15.9 µM (inactive); with SW-620, > 100 µM (inactive); in the experiment with TK-10, > 100 µM (inactive).

Take `COC12OC3(C4OC41)C(C(=O)O[C@H]3CO[Si](C)(C)C(C)(C)C)C2C(=O)Oc1ccccc1` (stereo not given in full): the GI50 in the experiment on A549, in the experiment with ACHN, in the experiment with HCC 2998, with HCT-116, in the experiment on K562 and in the experiment on LOX IMVI was > 100 µM (inactive) each time. The GI50 in the experiment with NCI-H226 was > 100 µM (inactive); in the experiment on NCI-H23, > 100 µM (inactive); in the experiment on NCI-H460, > 100 µM (inactive); with NCI/ADR-RES it was > 100 µM (inactive); with OVCAR-5 it was > 100 µM (inactive); in the experiment with RPMI-8226 it was 91 µM (inactive). The GI50 in the experiment on SF-268, in the experiment on SK-MEL-28, in the experiment with SK-MEL-5, in the experiment with SK-OV-3, in the experiment on SNB-75 and with SW-620 was > 100 µM (inactive) each time. Besides, in the experiment with TK-10, the GI50 was > 100 µM (inactive).

In the case of `CC(C)N(C)C(=O)C12C3C4C1C1C2C3C41C#N` (stereo not given), the GI50 in the experiment with A549, in the experiment on ACHN, in the experiment on HCC 2998, in the experiment with HCT-116, in the experiment on K562 and with LOX IMVI was > 100 µM (inactive) each time. Further, the GI50 in the experiment with NCI-H23, in the experiment with NCI-H460, with NCI/ADR-RES, in the experiment on OVCAR-5, in the experiment on RXF 393 and in the experiment on SF-268 was > 100 µM (inactive) each time. In addition, the GI50 was > 100 µM (inactive) with SK-MEL-28; > 100 µM (inactive) in the experiment on SK-MEL-5; 7.64 µM (inactive) in the experiment with SNB-75; > 100 µM (inactive) in the experiment with SW-620; > 100 µM (inactive) in the experiment with TK-10.

Regarding `O=S(O)CCCSSSCCCS(=O)O`, the GI50 in the experiment with ACHN, in the experiment on HCC 2998, with HCT-116, in the experiment on K562, with LOX IMVI and in the experiment on NCI-H23 was > 100 µM (inactive) each time. Also, the GI50 in the experiment on NCI-H460, with OVCAR-5, in the experiment with RXF 393, in the experiment with SF-268, in the experiment on SK-MEL-28 and with SK-OV-3 was > 100 µM (inactive) each time. In addition, the GI50 in the experiment on SNB-75 and with TK-10 was > 100 µM (inactive) throughout.

On to `Cn1c(=O)n2n(c1=O)C(C)(C13CC4CC(CC(C4)C1)C3)C13CC4CC(CC1C4)CC23` (stereo not given), for which the GI50 with A549 was > 100 µM (inactive); with ACHN it was > 100 µM (inactive); in the experiment on K562, 87.1 µM (inactive); in the experiment on NCI-H226, > 100 µM (inactive); in the experiment with NCI-H23, > 100 µM (inactive); in the experiment with NCI-H460, > 100 µM (inactive). The GI50 in the experiment with NCI/ADR-RES, in the experiment on OVCAR-5, with RPMI-8226, in the experiment on SF-268, in the experiment on SK-MEL-28 and in the experiment on SK-MEL-5 was > 100 µM (inactive) in each case. Further, the GI50 in the experiment with SK-OV-3, with SNB-75, in the experiment with SW-620 and in the experiment with TK-10 was > 100 µM (inactive) in each case.

On to `C=C(/C=C/C=C(/CCC=C(C)C)COC(C)=O)[C@@H]1CC[C@]2([C@H](CCCO)/C(=C(/C)C=O)CC[C@]2(C)O)[C@@H]1O`, for which the GI50 with A549 is 3.27 µM (inactive); in the experiment with ACHN it was 11.5 µM (inactive); in the experiment with HCC 2998, 7.4 µM (inactive); in the experiment on HCT-116, 19.5 µM (inactive); in the experiment on K562, 2.92 µM (inactive); with LOX IMVI, 10.4 µM (inactive). In addition, the GI50 in the experiment on NCI-H226 was 4.61 µM (inactive); in the experiment on NCI-H23, 18.8 µM (inactive); with NCI-H460, 0.414 µM (active); with OVCAR-5, 39 µM (inactive); in the experiment with RXF 393, 18.4 µM (inactive); in the experiment with SF-268, 15.7 µM (inactive). Besides, the GI50 with SK-MEL-28 is 13.7 µM (inactive); with SK-OV-3, 29.1 µM (inactive); with SNB-75, > 10 µM (inactive); in the experiment on SW-620, 2.42 µM (inactive); with TK-10, 14.2 µM (inactive).

On to `CC(=O)NC1=C(C)C(=O)c2c(nc3n2CCC3OC(=O)c2ccccc2)C1=O` (stereo not given), for which the GI50 with A549 was 1.7 µM (inactive); in the experiment with ACHN, 3.04 µM (inactive); with HCC 2998, 4.81 µM (inactive); in the experiment with HCT-116 it was 1.94 µM (inactive); with K562, 2.32 µM (inactive); in the experiment with LOX IMVI it was 1.51 µM (inactive). Also, the GI50 in the experiment on NCI-H226 is 2.05 µM (inactive); in the experiment with NCI-H23 it was 1.67 µM (inactive); in the experiment on NCI-H460, 2.37 µM (inactive); with OVCAR-5 it was 1.99 µM (inactive); in the experiment on RPMI-8226, 2.04 µM (inactive); with RXF 393, 3.79 µM (inactive). The GI50 was 2.21 µM (inactive) in the experiment with SF-268; 1.86 µM (inactive) in the experiment with SK-MEL-28; 1.75 µM (inactive) with SK-MEL-5; 2.03 µM (inactive) in the experiment with SK-OV-3; 3.58 µM (inactive) in the experiment with SNB-75; 1.79 µM (inactive) in the experiment with SW-620. Moreover, in the experiment on TK-10, the GI50 was 6.43 µM (inactive).

With `CC(C)NC(=O)OCc1nnn2c1CCC2`, the GI50 with A549, with ACHN, in the experiment with HCC 2998, with HCT-116, with K562 and in the experiment on LOX IMVI was > 100 µM (inactive) in each case. The GI50 with NCI-H23, with NCI-H460, in the experiment on OVCAR-5, in the experiment on RXF 393, in the experiment on SK-MEL-28 and in the experiment with SK-MEL-5 was > 100 µM (inactive) throughout. The GI50 in the experiment on SK-OV-3, in the experiment with SNB-75, in the experiment with SW-620 and in the experiment on TK-10 was > 100 µM (inactive) in each case.

For the compound `O=C1CCCCCCCCCCOC(=O)CCCCCCCCCCO1`, the GI50 in the experiment with A549, in the experiment on ACHN, with HCC 2998, in the experiment on HCT-116, in the experiment on K562 and in the experiment with LOX IMVI was > 100 µM (inactive) in each case. The GI50 in the experiment with NCI-H226, in the experiment with NCI-H23, in the experiment with NCI-H460, in the experiment on OVCAR-5, in the experiment on RXF 393 and in the experiment on SF-268 was > 100 µM (inactive) each time. Moreover, the GI50 in the experiment on SK-MEL-28, in the experiment with SK-MEL-5, in the experiment with SK-OV-3, in the experiment with SNB-75, in the experiment on SW-620 and with TK-10 was > 100 µM (inactive) each time.

Consider `O=C(c1ccccc1)c1cc(Cl)ccc1NCn1nnc2ccccc21`, for which the GI50 is 46 µM (inactive) in the experiment with A549; > 100 µM (inactive) in the experiment with ACHN; 47.8 µM (inactive) with HCC 2998; 34.6 µM (inactive) with K562; 73.3 µM (inactive) in the experiment with LOX IMVI; > 100 µM (inactive) in the experiment with NCI-H226. Besides, the GI50 is > 100 µM (inactive) in the experiment on NCI-H23; 69.5 µM (inactive) in the experiment with NCI-H460; 41.6 µM (inactive) in the experiment with RPMI-8226; 30.3 µM (inactive) in the experiment with RXF 393; 47.8 µM (inactive) in the experiment with SK-OV-3; 35.1 µM (inactive) with SNB-75. Further, the GI50 with SW-620 was 48.2 µM (inactive); in the experiment with TK-10, 81.1 µM (inactive).

As for `CC12CCC3C(CCC4CC(OC(=O)Cc5ccc(N(CCCl)CCCl)cc5)CCC43C)C1CCC(=O)N2` (stereo not given), the GI50 in the experiment with A549 is 15.5 µM (inactive); with ACHN, 11.2 µM (inactive); with HCC 2998, 18.9 µM (inactive); in the experiment on HCT-116, 15.1 µM (inactive); with K562 it was 16.9 µM (inactive); in the experiment on NCI-H226, 15.7 µM (inactive). Besides, the GI50 in the experiment on NCI-H23 was 13 µM (inactive); in the experiment on NCI-H460 it was 7.26 µM (inactive); in the experiment on RPMI-8226 it was 15.2 µM (inactive); in the experiment with RXF 393, 14.5 µM (inactive); with SF-268, 17.1 µM (inactive); with SK-MEL-28, 17.1 µM (inactive). For the same compound, the GI50 with SK-MEL-5 is 18.2 µM (inactive); in the experiment on SK-OV-3, 18 µM (inactive); in the experiment with SNB-75 it was 15 µM (inactive); in the experiment on SW-620, 14 µM (inactive); in the experiment with TK-10, 20.6 µM (inactive).
